Consider 1 compound from US12090147B2, “Combination therapy with 2-(4-chlorophenyl)-N-((2-(2,6-dioxopiperidin-3-yl)-1-oxoisoindolin-5-yl)methyl)-2,2-difluoroacetamide” (Celgene Corporation, priority 2019, dated 2024).

What all share (assay type): cell-based, human
Experiment [1] deals with ML-2. Description: Cytokine induction, electrochemiluminescence assay of culture supernatant. Conditions: ML-2. The procedure:
(§1) For cytokine assays on AML cell lines, cells were seeded at 1 million per mL, 3 mL per well of 6-well plates and allowed set overnight. The next day, cells were treated with 3 μL 1000× working stock of compounds of interest.
(§2) Human AML cell lines, HL-60 (CCL-240), KG-1 (CCL-246), ML-2 (ACC-15), MOLM-13 (ACC-554), MV-4-11 (CRL-9591), NOMO-1 (ACC-542), TF-1 (CRL-2003), THP-1 (TIB-202), and U937 (CRL-1593) were obtained from American Type Culture Collection (ATCC; Manassas, VA) or Deutsche Sammlung von Mikroorganismen and Zellkulturen (DSMZ, Germany) cell banks. Acute myeloid leukemia cell lines were maintained in RPMI-1640 (ATCC Cat No. 30-2001) containing 20% fetal bovine serum (FBS) (Corning Cat No. 35-010-CV) and maintained in humidified incubators at 5% carbon dioxide.
(§3) IL-1α (Meso Scale Disgnostics, Cat No. K151RBD), IL-1β (Meso Scale Disgnostics, Cat No. K151QPD), IL-1RA (Meso Scale Disgnostics, Cat No. K151WTD), IL-18 (Meso Scale Disgnostics, Cat No. K151VJK), TNFa (Meso Scale Disgnostics, Cat No. K151QWD), VEGF Meso Scale Disgnostics, Cat No. K151RHD) levels were measured by (Meso Scale Disgnostics assay kits following manufacturer's instructions. Measurements were made on a MESO™ SECTOR S 600 plate reader (Meso Scale Disgnostics).
(§4) Cell proliferation (CTG) and caspase 3/7 activation (IncuCyte) were analyzed using GraphPad Prism. Electrochemiluminescence data was analyzed using MSD Discovery Workbench platform.
(§5) The level of intracellular pro IL-1β and released IL-1β in eight AML cell lines and normal PBMC treated with a titration of Compound 1 over a 48 hour period was assessed. (see FIGS. 1A-1C, Table 2). Supernatant IL-1βb level was induced over 5 fold in 6 out of 8 AML cell lines and normal PBMC upon Compound 1 treatment compared to DMSO (FIGS. 1A, 1B, and 1C, Table 2).

For experiment [2], the system named is TF-1. The description is as above. On the procedure:
as §1, §2, §3, §4, §5

In experiment [3] the test system is KG-1. Described as above. On the procedure: as §1, §2, §3, §4, §5
Experiment [4] deals with NOMO-1. The description is as above. The procedure: as §1, §2, §3, §4, §5
The test system of experiment [5] is THP-1. The description is as above. The procedure:
as §1, §2, §3, §4, §5

Experiment [6] relates to MOLM-13. The experiment is described as above. Conditions: MOLM-13. The procedure:
as §1, §2, §3, §4, §5

Experiment [7] deals with U937. The experiment is described as above. On the procedure:
as §1, §2, §3, §4, §5

The test system of experiment [8] is MV4-11. Described as above. The note with it: MV4-11. On the procedure:
as §1, §2, §3, §4, §5

The test system of experiment [9] is bone marrow mononuclear cells (BMMC) from primary AML patients. The experiment is described as follows: Secreted IL-1β in primary bone marrow mononuclear cells ex vivo. On the procedure:
For cytokine assays on primary AML and healthy bone marrow cells, cells were seeded at 0.2 million in 150 μL media per well of ultra-low attachment 96-well plate in duplicates. Cell culture media was collected 24 and 48 hours post-treatment with Compound 1 and/or LPS. Cells were pelleted, fixed in 1.6% PFA and froze down for flow cytometry analysis.
Normal PBMCs were purchased from AllCells (Cat No. PB006F). Primary AML BMMC in were purchased from Conversant (SKU ID: BBM1000-E1110036458110215SH) or Fidelis Research (AML55, AML57, AML73, AML74, AML76, AML79, AML80, AML81, AML84, AML95). Bone marrow from health donor was purchased from StemCell Technologies (Cat No. 70001.2).
Normal PBMCs were cultured in RPMI-1640 (ATCC Cat No. 30-2001) containing 20% fetal bovine serum (Corning Cat No. 35-010-CV). […]
IL-1α (Meso Scale Disgnostics, Cat No. K151RBD), IL-1β (Meso Scale Disgnostics, Cat No. K151QPD), IL-1RA (Meso Scale Disgnostics, Cat No. K151WTD), IL-18 (Meso Scale Disgnostics, Cat No. K151VJK), TNFa (Meso Scale Disgnostics, Cat No. K151QWD), VEGF Meso Scale Disgnostics, Cat No. K151RHD) levels were measured by (Meso Scale Disgnostics assay kits following manufacturer's instructions. Measurements were made on a MESO™ SECTOR S 600 plate reader (Meso Scale Disgnostics). […]

For the compound `O=C1CCC(N2Cc3cc(CNC(=O)C(F)(F)c4ccc(Cl)cc4)ccc3C2=O)C(=O)N1` (stereo not shown) [Compound 1, 2-(4-chlorophenyl)-N-((2-(2,6-dioxopiperidin-3-yl)-1-oxoisoindolin-5-yl)methyl)-2,2-difluoroacetamide], the IL-1β induction is on record as 3.48 in [1]; 1.41 in [2]; 27.17 in [3]; 1.34 in [4]; 12.13 in experiment [5]; 0.00 in experiment [6]. The IL-1β induction is 1.28 in experiment [7] and 16.46 in experiment [8]. Also, the IL-18 induction in experiment [1] came to 0.00; in experiment [2], 0.64; in [3], 0.38; in experiment [4] it was 0.24; in experiment [5] it was 2.46; in experiment [7], 0.41. Moreover, the IL-18 induction in experiment [8] is reported as 0.00. Moreover, the “Intracellular pro- and secreted IL-1β induction, time of onset” value in [1] is reported as “not observed until 48 hours post-treatment”. The “Secreted IL-1β in cell culture supernatant” value in experiment [1] (24, 48 and 72 hours, doses conferring similar caspase3/7 activation and viability loss) is “conferred induction”. In addition, the “IL-1β in cell culture supernatant, FAB M0/M1/M2 AML BMMC” value in experiment [9] (four M0/M1/M2 samples) was “not able to induce IL-1β”. Moreover, the “IL-1β in cell culture supernatant, FAB M4/M5 AML BMMC” value in experiment [9] (two out of five M4/M5 samples, 24 and 48 hours post treatment) is “marked induction of IL-1β”.
